Residues, ends and D or L forms follow the SMILES beside them.
Test: pH stability study of GLYX-13 150 mg/mL HCl formulations (40° C., 3 weeks), HPLC assay and related substances
Format: physicochemical
Procedure: Column: Waters Spherisorb ODS2, 3 μm, 4.6×250 mm, Part # PSS832115
Mobile phase A: 2.2 g/L heptanesulfonic acid, 6.7 g/L potassium dihydrogen phosphate, pH 2.5
Mobile phase B: 70/30 Methanol/Water
Column temperature: 40±1° C.
Sample temperature: 4±1° C.
Four formulations were prepared to examine dissolution of the drug based (Table 2). Each formulation was prepared at 35 mL and contained 5.25 g of GLYX-13.
Each formulation was prepared by adding the drug to a beaker and adjusting the volume to approximately 26 mL using purified water. The pH was adjusted using 5 M HCl that was added in small increments. The solution was mixed for 10 minutes after each adjustment and mixed for 30 minutes after reaching the desired pH. The pH of the solution was checked after 30 minutes and adjusted if needed. The solution was adjusted to 35 mL using purified water when a drift in pH was no longer observed. Each formulation was filled into vials (2.5 mL/vial), sealed with a stopper, and capped. The formulations were stored at 40° C. for 3 weeks and samples were removed weekly. All weekly samples were examined for appearance, tested for pH, assay and related substances using the HPLC assay.
Data were analyzed using the appropriate software designed for the assay and impurities HPLC method. Impurity 1 (RRT 0.43) is cyclo-proline-threonine (“diketopiperazine”). Impurity 2 (RRT 0.57) is proline-threonine amide. […]

Structure (SMILES): CC(O)C(N)C(=O)N1CCCC1C(=O)N1CCCC1C(=O)NC(C(N)=O)C(C)O (stereo not shown) [GLYX-13] (H-TPPT-NH2; configuration not given here)
- rate of impurity formation at pH 7, fold greater than the rate at pH 4: approximately 6 fold
